Results from patent US7358417B2, “Transgenic organism expressing fungal MRP-like ABC transporters” (priority 2001, dated 2008).
Values joined by “and” are separate entries in the source; they are usually repeats but may differ in a detail not shown here. Identical values can stand only once.

Columns and labels:
[1] = tested on: vacuoles of wild-type plants; assay: Accumulation of GS-associated compounds in vacuoles separated from wild-type Arabidopsis
Experimental: (§1) To Investigate that these phenomena occurred due to the fact that YCF1 proteins transport heavy metals into vacuoles, the vacuoles were separated from YCF1 transformed plants and wild-type plants, and experiments of transporting cadmium and herbicides were carried out.

[2] = tested on: vacuoles of YCF1 transformed plants; assay: Accumulation of GS-associated compounds in vacuoles separated from YCF1 transformed Arabidopsis
Experimental: as §1

[3] = tested on: ycf1-pESC yeast, wt-pESC yeast, ycf1-YCF1 yeast; assay: Heavy metal content of recombinant yeasts by atomic absorption spectrometer; type: cell-based, Saccharomyces cerevisiae; settings: one day
Experimental: Three kinds of yeasts (ycf1-pESC yeast, wt-pESC yeast, and ycf1-YCF1 yeast) were each cultured in 1/2 galactose solid media containing 1.5 mM lead or 15 uM cadmium for one day, and the cultured yeasts were scraped for harvest. The harvested yeasts were put into 1 ml of concentrated nitric acid, digested for 200° C. for about 6 hours, and then diluted with 10 ml of 0.5 N nitric acid, and the amount of heavy metals contained in the yeasts was measured using an atomic absorption spectrometer (AAS). The measurement results for ycf1-pESC yeast, wt-pESC yeast, and ycf1-YCF1 yeast are represented by graph In FIG. 3.

[4] = tested on: YCF1 Arabidopsis plants; assay: Accumulation of heavy metals in transformed Arabidopsis plants; type: in vivo, Arabidopsis thaliana; settings: three weeks
Experimental: YCF1 Arabidopsis plants obtained in Example 5 and wild-type Arabidopsis transformed with empty vector, PBI, were cultivated in 1/2 MS media containing lead (0.75 mM) and cadmium (70 μM) for three weeks to investigate accumulation of heavy metals.

[5] = tested on: Arabidopsis plants; assay: Growth of Arabidopsis plants in the presence of noxious materials; type: in vivo, Arabidopsis thaliana; settings: 60 μM pentavalent arsenic three weeks, 60 μM CDNB two months
[6] = tested on: yeast; assay: Growth of yeast on lead or cadmium-containing media; type: cell-based, Saccharomyces cerevisiae; settings: for Growth of ycf1-YCF1 yeast in media containing lead or cadmium: 1.8 mM lead or 50 uM cadmium, galactose media; for Growth of ycf1 mutant yeast as compared with wild-type yeast: 3 mM lead or 0.1 mM cadmium, three days
Experimental: Wild-type yeast (DTY 165) and ycf1 mutant yeast (DTY 167, MATa ura3 leu2 his3 trp3 lys2 suc2 ycf::hisG) were cultured in YPD liquid media (1% yeast extract, 2% peptone, 2% dextrose) at 30° C. until OD600 reached 1-2, and then yeast cells of the same number (1×10^2, 1×10^3, 1×10^4 or 1×10^5) were cultured in half-diluted YPD solid media containing 3 mM lead at 30° C. for three days. Likewise, they were also cultured in half-diluted YPD solid media containing 0.1 mM cadmium.
The ycf1-pESC yeast, wt-pESC yeast, and ycf1-YCF1 yeast 25 constructed above were each cultured in galactose media (2% galactose, 1% of 0.17% YNB, 0.13% dropout powder, 0.5% ammonium sulfate) to which 1.8 mM lead was added, or in galactose media to which 50 uM of cadmium was added. Control group was cultured in galactose media without heavy metals. Growth degree of each of the recombinant ycf1-pESC yeast, wt-pESC yeast, and ycf1-YCF1 yeast in lead or cadmium-containing media is shown in the photographs of FIG. 2.
Resistance to lead in wt-v yeast, yhl035c-v yeast, and YHL035C yeast was tested according to methods substantially similar to the above Example 3-2.

[7] = tested on: poplar; assay: Growth of poplar plants in the presence of lead; type: in vivo, Populus alba ×P. glandulosa
Experimental: The leaf fragments and stalks of YCF1 poplar plants prepared in Example 5 were mounted on callus-inducible media containing 500 ppm of lead, and cultivated for two weeks to Investigate the difference In their growth. As a control, wild-type poplar plants, which were not transformed, were treated in the same manner, and the results of the experiments are shown in FIG. 10.
YHL035C transformed poplar plants prepared in Example 5 were transferred to a pot and allowed to grow into pot seedlings. These pot seedlings were transferred to soil that was dipped into a solution containing 500 ppm of […].

[8] = YCF1 transformed vacuoles, +MgATP

**Q.** For `N[C@@H](CCC(=O)N[C@@H](CSc1ccc([N+](=O)[O-])cc1[N+](=O)[O-])C(=O)NCC(=O)O)C(=O)O` [DNB − GS], which “Accumulation in the vacuoles, Wild-type Plants, +MgATP” value [1] is on record?
**A.** 28 ± 1.3 pmol/1 ul vacuole/20 min

**Q.** What about the “Accumulation in the vacuoles, Wild-type Plants, −MgATP” value ([1]; −MgATP) of the same compound?
**A.** 21 ± 1.1 pmol/1 ul vacuole/20 min

**Q.** And the “Accumulation in YCF1 transformants relative to wild-type (in words)” value ([2]; +MgATP)?
**A.** a little higher accumulation than wild-type

**Q.** And the “Accumulation in the vacuoles, YCF1 Transformed Plants, +MgATP” value [2, 8]?
**A.** 33 ± 1.2 pmol/1 ul vacuole/20 min

**Q.** What about the “Accumulation in the vacuoles, YCF1 Transformed Plants, −MgATP” value ([2]; YCF1 transformed vacuoles, −MgATP) of the same compound?
**A.** 24 ± 0.9 pmol/1 ul vacuole/20 min

**Q.** With `N[C@@H](CCC(=O)N[C@@H](CS)C(=O)NCC(=O)O)C(=O)O` [GSH] as the compound, how does the “Accumulation in the vacuoles, Wild-type Plants, +MgATP” value [1] read?
**A.** 70 ± 2.2 pmol/1 ul vacuole/20 min

**Q.** What about the “Accumulation in the vacuoles, YCF1 Transformed Plants, +MgATP” value [2, 8] of the same compound?
**A.** 69 ± 1.1 pmol/1 ul vacuole/20 min

**Q.** For `[Cd]` [cadmium], which “Accumulation of cadmium in wt-pESC yeast and ycf1-YCF1 yeast compared with ycf1-pESC yeast” value ([3]; 15 uM cadmium) is on record?
**A.** high accumulation

**Q.** And the “Accumulation of cadmium in YCF1 Arabidopsis plants relative to PBI” value ([4]; 70 μM cadmium)?
**A.** 2 fold and 3 fold

**Q.** What about the “Growth of wild-type Arabidopsis” value ([5]; cadmium various concentrations) of the same compound?
**A.** more chlorosis in leaves

**Q.** And the “Growth of ycf1-YCF1 yeast in media containing lead or cadmium” value [6]?
**A.** grew better than ycf1-pESC yeast or wt-pESC yeast

**Q.** What about the “Growth of ycf1 mutant yeast as compared with wild-type yeast” value [6] of the same compound?
**A.** grew little

**Q.** `[Pb]` [lead] was tested. Which “Accumulation of lead in wt-pESC yeast and ycf1-YCF1 yeast relative to ycf1-pESC yeast” value ([3]; 1.5 mM lead) did it give?
**A.** ~2 fold

**Q.** And the “Accumulation of lead in YCF1 Arabidopsis plants relative to PBI” value ([4]; 0.75 mM lead)?
**A.** 2 fold and 1.4 fold

**Q.** What about the “Growth of YCF1 Arabidopsis” value ([5]; lead three weeks) of the same compound?
**A.** less chlorosis In leaves and better growth of roots

**Q.** What about the “Sensitivity of yhl035c-v yeast” value ([6]; 1.8 mM lead) of the same compound?
**A.** more sensitive than wt-v yeast

**Q.** And the “Growth of ycf1-YCF1 yeast in media containing lead or cadmium” value [6]?
**A.** grew better than ycf1-pESC yeast or wt-pESC yeast

**Q.** And the “Growth of ycf1 mutant yeast as compared with wild-type yeast” value [6]?
**A.** decreased

**Q.** And the “Growth in stalk pieces of YCF1 poplar relative to wild-type” value ([7]; 500 ppm of lead, two weeks)?
**A.** ~2 fold

**Q.** And the “Growth of YHL035C transformant poplar in soil containing lead” value ([7]; 500 ppm, four weeks)?
**A.** grew much better than the wild-type

**Q.** What about the “Growth of wild-type poplar in soil containing lead” value ([7]; 500 ppm, four weeks) of the same compound?
**A.** grew poorly
